According to ChEMBL document CHEMBL3525961, “Identification of human UDP-glucuronosyltransferases involved in N-carbamoyl glucuronidation of lorcaserin” (Drug Metab Dispos, 2012):

Legend:
Liver microsome [1] = test: Drug metabolism in human liver microsomes assessed as N-carbamoyl glucuronide formation; format: ADME
Liver microsome [2] = test: Drug metabolism in human liver microsomes assessed as N-carbamoyl glucuronide formation per mg protein; format: ADME
Liver microsome [3] = test: Drug metabolism in human liver microsomes assessed as intrinsic clearance for N-carbamoyl glucuronide formation per mg protein; format: ADME
[4] = target: T1, UDP-glucuronosyltransferase 1A9 (Homo sapiens, UniProt O60656); test: Activity of human recombinant UGT1A9 expressed in insect cells assessed as intrinsic clearance for enzyme-mediated N-carbamoyl glucuronide formation per mg protein; format: ADME
T1 sequence (O60656 whole entry): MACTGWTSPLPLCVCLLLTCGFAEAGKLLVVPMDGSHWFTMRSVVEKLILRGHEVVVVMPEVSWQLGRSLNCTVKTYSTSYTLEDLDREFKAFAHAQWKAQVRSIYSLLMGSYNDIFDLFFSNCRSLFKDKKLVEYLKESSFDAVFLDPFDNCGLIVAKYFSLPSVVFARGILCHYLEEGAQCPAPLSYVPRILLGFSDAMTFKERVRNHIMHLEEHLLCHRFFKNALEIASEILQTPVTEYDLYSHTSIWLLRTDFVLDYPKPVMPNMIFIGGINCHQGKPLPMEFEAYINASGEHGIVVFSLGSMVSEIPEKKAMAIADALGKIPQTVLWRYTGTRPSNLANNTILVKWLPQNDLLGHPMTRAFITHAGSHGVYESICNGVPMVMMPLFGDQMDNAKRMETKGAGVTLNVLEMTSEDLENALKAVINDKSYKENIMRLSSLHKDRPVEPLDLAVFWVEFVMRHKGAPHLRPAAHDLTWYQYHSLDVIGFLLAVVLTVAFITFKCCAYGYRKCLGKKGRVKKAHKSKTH

[5] = target: T2, UDP-glucuronosyltransferase 2B7 (Homo sapiens, UniProt P16662); test: Activity of human recombinant UGT2B7 expressed in insect cells assessed as intrinsic clearance for enzyme-mediated N-carbamoyl glucuronide formation per mg protein; format: ADME
T2 sequence (P16662 whole entry): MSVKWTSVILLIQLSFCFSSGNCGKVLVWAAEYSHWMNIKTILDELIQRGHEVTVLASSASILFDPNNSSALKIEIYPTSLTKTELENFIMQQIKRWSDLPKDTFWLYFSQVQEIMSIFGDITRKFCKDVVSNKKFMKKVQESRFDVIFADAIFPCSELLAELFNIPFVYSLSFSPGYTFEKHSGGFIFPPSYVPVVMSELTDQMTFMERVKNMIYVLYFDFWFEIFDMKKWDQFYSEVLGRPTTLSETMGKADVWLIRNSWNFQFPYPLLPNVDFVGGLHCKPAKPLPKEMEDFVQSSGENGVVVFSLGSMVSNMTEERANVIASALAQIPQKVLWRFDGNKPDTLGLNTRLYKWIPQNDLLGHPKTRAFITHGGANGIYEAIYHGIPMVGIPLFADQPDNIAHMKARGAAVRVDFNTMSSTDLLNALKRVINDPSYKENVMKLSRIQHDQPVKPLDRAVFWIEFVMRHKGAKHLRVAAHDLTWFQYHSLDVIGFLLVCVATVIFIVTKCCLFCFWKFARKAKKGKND

[6] = target: T3, UDP-glucuronosyltransferase 2B15 (Homo sapiens, UniProt P54855); test: Activity of human recombinant UGT2B15 expressed in insect cells assessed as intrinsic clearance for enzyme-mediated N-carbamoyl glucuronide formation per mg protein; format: ADME
T3 sequence (P54855 whole entry): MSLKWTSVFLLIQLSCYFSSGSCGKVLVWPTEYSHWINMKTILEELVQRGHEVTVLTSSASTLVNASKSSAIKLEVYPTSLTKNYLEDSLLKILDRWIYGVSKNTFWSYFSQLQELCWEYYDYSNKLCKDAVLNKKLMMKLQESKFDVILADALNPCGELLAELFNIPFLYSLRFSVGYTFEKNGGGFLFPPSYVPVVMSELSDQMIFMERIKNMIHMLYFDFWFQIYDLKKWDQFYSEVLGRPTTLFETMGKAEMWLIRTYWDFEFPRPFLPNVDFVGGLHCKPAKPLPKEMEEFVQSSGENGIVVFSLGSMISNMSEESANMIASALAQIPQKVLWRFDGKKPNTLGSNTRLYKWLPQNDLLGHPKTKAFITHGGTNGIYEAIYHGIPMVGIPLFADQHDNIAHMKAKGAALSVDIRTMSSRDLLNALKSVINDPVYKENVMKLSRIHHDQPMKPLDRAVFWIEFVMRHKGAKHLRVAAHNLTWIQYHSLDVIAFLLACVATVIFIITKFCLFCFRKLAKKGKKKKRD

[7] = target: T4, UDP-glucuronosyltransferase 2B17 (Homo sapiens, UniProt O75795); test: Activity of human recombinant UGT2B17 expressed in insect cells assessed as intrinsic clearance for enzyme-mediated N-carbamoyl glucuronide formation per mg protein; format: ADME
T4 sequence (O75795 whole entry): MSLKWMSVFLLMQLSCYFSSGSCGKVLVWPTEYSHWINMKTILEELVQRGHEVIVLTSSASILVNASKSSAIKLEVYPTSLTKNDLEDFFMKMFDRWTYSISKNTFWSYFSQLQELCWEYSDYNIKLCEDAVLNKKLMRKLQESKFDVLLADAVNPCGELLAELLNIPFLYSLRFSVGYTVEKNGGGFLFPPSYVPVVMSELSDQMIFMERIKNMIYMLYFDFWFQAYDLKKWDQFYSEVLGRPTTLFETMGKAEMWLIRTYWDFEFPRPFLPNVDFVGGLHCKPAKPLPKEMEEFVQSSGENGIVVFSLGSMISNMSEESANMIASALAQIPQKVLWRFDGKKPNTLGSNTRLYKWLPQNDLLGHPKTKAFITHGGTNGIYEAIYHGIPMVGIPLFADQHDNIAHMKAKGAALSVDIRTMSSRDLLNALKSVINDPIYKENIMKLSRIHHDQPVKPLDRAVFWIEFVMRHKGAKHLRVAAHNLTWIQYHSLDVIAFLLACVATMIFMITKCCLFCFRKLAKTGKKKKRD

Liver = test: Drug metabolism in human liver assessed as N-carbamoyl glucuronide formation per mg protein at 100 uM; format: ADME, tissue-based
[8] = Drug metabolism in human kidney assessed as N-carbamoyl glucuronide formation per mg protein at 100 uM; format: ADME, tissue-based
[9] = Drug metabolism in human intestine assessed as N-carbamoyl glucuronide formation per mg protein at 100 uM; format: ADME, tissue-based
[10] = Drug metabolism in smoking human lung assessed as N-carbamoyl glucuronide formation per mg protein at 100 uM; format: ADME, tissue-based
[11] = Drug metabolism in non-smoking human lung assessed as N-carbamoyl glucuronide formation per mg protein at 100 uM; format: ADME, tissue-based
[12] = target: T5, UDP-glucuronosyltransferase 1A6 (Homo sapiens, UniProt P19224); test: Activity of human recombinant UGT1A6 expressed in insect cells assessed as intrinsic clearance for enzyme-mediated N-carbamoyl glucuronide formation; format: ADME
T5 sequence (P19224 whole entry): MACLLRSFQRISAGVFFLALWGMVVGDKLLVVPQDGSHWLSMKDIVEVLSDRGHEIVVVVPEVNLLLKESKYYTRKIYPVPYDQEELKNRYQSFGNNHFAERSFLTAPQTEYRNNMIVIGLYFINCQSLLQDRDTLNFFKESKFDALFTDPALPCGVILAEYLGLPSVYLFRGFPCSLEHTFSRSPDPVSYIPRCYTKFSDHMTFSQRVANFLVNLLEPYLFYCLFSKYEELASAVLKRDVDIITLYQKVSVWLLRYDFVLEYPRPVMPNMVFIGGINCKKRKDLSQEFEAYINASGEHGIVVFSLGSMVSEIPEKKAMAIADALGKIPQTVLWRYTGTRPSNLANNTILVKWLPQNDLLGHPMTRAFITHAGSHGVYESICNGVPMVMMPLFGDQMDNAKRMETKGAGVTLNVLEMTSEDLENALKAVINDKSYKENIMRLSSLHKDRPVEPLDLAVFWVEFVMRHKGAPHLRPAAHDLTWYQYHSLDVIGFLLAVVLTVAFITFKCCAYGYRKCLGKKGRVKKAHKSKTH

[13] = target: T1, UDP-glucuronosyltransferase 1A9; test: Activity of human recombinant UGT1A9 expressed in insect cells assessed as intrinsic clearance for enzyme-mediated N-carbamoyl glucuronide formation; format: ADME
[14] = target: T2, UDP-glucuronosyltransferase 2B7; test: Activity of human recombinant UGT2B7 expressed in insect cells assessed as intrinsic clearance for enzyme-mediated N-carbamoyl glucuronide formation; format: ADME
[15] = target: T3, UDP-glucuronosyltransferase 2B15; test: Activity of human recombinant UGT2B15 expressed in insect cells assessed as intrinsic clearance for enzyme-mediated N-carbamoyl glucuronide formation; format: ADME
[16] = target: T4, UDP-glucuronosyltransferase 2B17; test: Activity of human recombinant UGT2B17 expressed in insect cells assessed as intrinsic clearance for enzyme-mediated N-carbamoyl glucuronide formation; format: ADME
Liver microsome [17] = test: Drug metabolism in human liver microsomes assessed as 100 uM eugenol-mediated inhibition of N-carbamoyl glucuronide formation at 1 uM; format: ADME
Liver microsome [18] = test: Drug metabolism in human liver microsomes assessed as 25 uM bisphenol-mediated inhibition of N-carbamoyl glucuronide formation at 100 uM; format: ADME
Liver microsome [19] = test: Drug metabolism in human liver microsomes assessed as 100 uM eugenol-mediated inhibition of N-carbamoyl glucuronide formation at 100 uM; format: ADME
Liver microsome [20] = test: Drug metabolism in human liver microsomes assessed as N-carbamoyl glucuronide formation at 100 uM in presence of 5 uM mefenamic acid; format: ADME
Liver microsome [21] = test: Drug metabolism in human liver microsomes assessed as N-carbamoyl glucuronide formation at 100 uM in presence of 5 uM bisphenol; format: ADME
Liver microsome [22] = test: Drug metabolism in human liver microsomes assessed as N-carbamoyl glucuronide formation at 100 uM in presence of 20 uM eugenol; format: ADME

Compound: C[C@H]1CNCCc2ccc(Cl)cc21.Cl.O
- Km (Liver microsome [1]): 128 µM
- Vmax (Liver microsome [2]): 2379.2 pmol/min
- CLH (Liver microsome [3]): 18.57 µL/min/g
- CL [4]: 0.199 µL/min/g
- CL [5]: 1.987 µL/min/g
- CL [6]: 4.601 µL/min/g
- CL [7]: 0.611 µL/min/g
- Drug metabolism (Liver): 1028 pmol/min
- Drug metabolism [8]: 185.9 pmol/min
- Drug metabolism [9]: 133.1 pmol/min
- Drug metabolism [10]: 1.116 pmol/min
- Drug metabolism [11]: 0.493 pmol/min
- Drug metabolism [12]: metabolite_detected
- Drug metabolism [13]: metabolite_detected
- Drug metabolism [14]: metabolite_detected
- Drug metabolism [15]: metabolite_detected
- Drug metabolism [16]: metabolite_detected
- inhibition (INH) (Liver microsome [17]): 18%
- inhibition (INH) (Liver microsome [18]): 30%
- inhibition (INH) (Liver microsome [19]): 11%
- Drug metabolism (Liver microsome [20]): metabolite_detected
- Drug metabolism (Liver microsome [21]): metabolite_detected
- Drug metabolism (Liver microsome [22]): metabolite_detected
